Measured values: patent publication US20250213558A1, “T-TYPE CALCIUM CHANNEL MODULATORS COMPRISING A PIPERAZINE OR 1,4-DIAZEPANE CORE AND METHODS OF USE THEREOF” (Praxis Precision Medicines, Inc., priority 2022, published 2025)
Where two headings read alike, the source gives them in different places.

Target: T1, Human Cav3.1 calcium channel (Homo sapiens, UniProt O43497)
T1 construct: expressed in transfected cells; host or cells: HEK-293 natClytin/TASK1+Cav3.1 cell line
Experiment: Human Cav3.1 calcium channel patch clamp assay (SyncroPatch 384PE; single point and IC50, voltage dependent block)
Format: cell-based
Conditions: for % Inhibition (Single Point Data): Testing Conc 1.25, patch clamp
How it was run: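 Automated whole-cell patch clamp at room temperature, cells held at −120 mV; 100 ms step to −20 mV (resting block), then 1600 ms at −65 mV and a second −20 mV step (voltage-dependent block), every 15 s. Peak currents averaged over last 3 sweeps; % inhibition relative to nickel-sensitive current.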

[1] = HEK-293 natClytin/TASK1+Cav3.1 cell line
[2] = voltage dependent block (VDB), HEK-293 natClytin/TASK1+Cav3.1 cell line, read-out: Cav3.1 IC50

T1 sequence (O43497 whole entry): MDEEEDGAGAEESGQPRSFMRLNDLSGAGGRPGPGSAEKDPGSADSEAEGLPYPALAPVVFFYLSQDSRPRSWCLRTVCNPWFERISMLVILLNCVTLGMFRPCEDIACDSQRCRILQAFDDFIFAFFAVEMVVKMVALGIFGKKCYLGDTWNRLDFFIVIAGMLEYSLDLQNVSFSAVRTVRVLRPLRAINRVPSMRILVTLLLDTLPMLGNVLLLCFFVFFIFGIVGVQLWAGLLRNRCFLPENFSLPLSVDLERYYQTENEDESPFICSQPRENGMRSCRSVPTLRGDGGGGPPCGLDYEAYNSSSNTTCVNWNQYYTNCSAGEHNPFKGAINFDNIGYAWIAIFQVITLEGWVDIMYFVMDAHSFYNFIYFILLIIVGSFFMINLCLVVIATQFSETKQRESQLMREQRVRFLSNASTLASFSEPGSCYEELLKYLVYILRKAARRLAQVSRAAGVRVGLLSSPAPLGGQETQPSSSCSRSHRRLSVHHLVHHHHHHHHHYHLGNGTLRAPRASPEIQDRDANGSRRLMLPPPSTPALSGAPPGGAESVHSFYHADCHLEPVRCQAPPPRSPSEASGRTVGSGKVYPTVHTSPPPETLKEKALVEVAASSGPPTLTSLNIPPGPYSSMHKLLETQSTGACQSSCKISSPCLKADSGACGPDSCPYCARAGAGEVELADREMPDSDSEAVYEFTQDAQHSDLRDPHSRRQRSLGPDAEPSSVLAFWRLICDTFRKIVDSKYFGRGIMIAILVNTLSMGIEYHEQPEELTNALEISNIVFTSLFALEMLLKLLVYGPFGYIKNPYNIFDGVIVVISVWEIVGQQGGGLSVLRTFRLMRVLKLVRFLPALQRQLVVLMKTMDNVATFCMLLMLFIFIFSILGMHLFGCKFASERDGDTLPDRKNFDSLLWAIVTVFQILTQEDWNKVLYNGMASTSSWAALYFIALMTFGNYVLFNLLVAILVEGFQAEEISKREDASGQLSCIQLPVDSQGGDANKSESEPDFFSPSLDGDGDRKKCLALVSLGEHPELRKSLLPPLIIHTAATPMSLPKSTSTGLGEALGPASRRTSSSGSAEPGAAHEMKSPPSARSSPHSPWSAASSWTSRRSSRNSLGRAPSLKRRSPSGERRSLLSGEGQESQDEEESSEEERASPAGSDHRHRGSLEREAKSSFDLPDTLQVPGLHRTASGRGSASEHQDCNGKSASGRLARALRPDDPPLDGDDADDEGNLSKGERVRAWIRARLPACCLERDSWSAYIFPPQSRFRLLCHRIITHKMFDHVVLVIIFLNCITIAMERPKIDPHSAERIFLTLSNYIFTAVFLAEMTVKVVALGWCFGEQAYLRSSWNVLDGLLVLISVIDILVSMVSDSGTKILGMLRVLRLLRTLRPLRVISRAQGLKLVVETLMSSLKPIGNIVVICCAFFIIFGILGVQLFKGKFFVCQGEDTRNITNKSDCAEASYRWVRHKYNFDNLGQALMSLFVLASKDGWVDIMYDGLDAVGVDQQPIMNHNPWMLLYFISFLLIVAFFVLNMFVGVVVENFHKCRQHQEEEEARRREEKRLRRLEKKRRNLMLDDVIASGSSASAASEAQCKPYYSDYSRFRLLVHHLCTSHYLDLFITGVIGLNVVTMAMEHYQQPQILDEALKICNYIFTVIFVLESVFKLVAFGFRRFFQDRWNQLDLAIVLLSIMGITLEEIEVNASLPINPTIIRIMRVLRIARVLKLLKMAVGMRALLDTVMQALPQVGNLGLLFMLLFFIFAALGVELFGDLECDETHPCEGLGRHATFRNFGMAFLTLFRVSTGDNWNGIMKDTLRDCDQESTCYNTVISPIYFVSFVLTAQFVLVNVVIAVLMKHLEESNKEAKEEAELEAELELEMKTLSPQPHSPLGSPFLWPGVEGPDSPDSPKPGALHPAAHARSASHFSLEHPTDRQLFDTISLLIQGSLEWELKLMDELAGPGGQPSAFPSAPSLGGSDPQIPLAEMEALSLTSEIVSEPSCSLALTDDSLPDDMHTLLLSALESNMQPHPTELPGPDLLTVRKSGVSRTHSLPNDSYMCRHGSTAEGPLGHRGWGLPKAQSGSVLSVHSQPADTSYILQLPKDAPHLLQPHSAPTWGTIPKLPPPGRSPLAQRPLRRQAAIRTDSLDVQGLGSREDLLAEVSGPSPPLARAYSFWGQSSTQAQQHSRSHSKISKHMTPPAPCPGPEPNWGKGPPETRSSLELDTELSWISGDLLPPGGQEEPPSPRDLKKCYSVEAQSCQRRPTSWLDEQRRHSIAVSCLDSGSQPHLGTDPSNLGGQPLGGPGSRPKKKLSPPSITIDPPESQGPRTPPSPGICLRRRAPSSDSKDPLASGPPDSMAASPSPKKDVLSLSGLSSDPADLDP

SMILES	% Inhibition (Single Point Data) [1]	IC50 [2]	IC50
O=C(NCCN1C2CC1CN(Cc1nc3c(Cl)cc(F)cc3[nH]1)C2)C1(C(F)(F)F)CC1 [Compound 135]	101.33%	156 nM	–
COc1ccc(Cl)c2nc(CN3CC4CC(C3)N4CC(=O)NC(C)(C)C(F)(F)F)[nH]c12 [Compound 136]	100.03%	–	–
CC1(C(=O)NCCN2C3CC2CN(Cc2nc4c(Cl)cc(F)cc4[nH]2)C3)CCC1 [Compound 137]	96.095%	–	< 78.2 nM
O=C(NCCN1C2CC1CN(Cc1nc3c(Cl)cc(F)cc3[nH]1)C2)C1(C(F)(F)F)CCC1 [Compound 138]	98.457%	–	–
CC(C)(C)OC(=O)CN1C2CC1CN(Cc1nc3c(Cl)cc(F)cc3[nH]1)C2 [Compound 139]	92.564%	153 nM	–
CC1(OC(=O)CN2C3CC2CN(Cc2nc4c(Cl)cc(F)cc4[nH]2)C3)CC1 [Compound 140]	79.539%	283 nM	–
O=C(CN1C2CC1CN(Cc1nc3c(Cl)cc(F)cc3[nH]1)C2)OC1CCCC1 [Compound 141]	100.15%	162 nM	–
CC1(S(=O)(=O)NCCN2C3CC2CN(Cc2nc4c(Cl)cc(F)cc4[nH]2)C3)CC1 [Compound 142]	84.115%	223 nM	–
CC1(C(=O)OCCN2C3CC2CN(Cc2nc4c(Cl)cc(F)cc4[nH]2)C3)CC1 [Compound 143]	78.298%	174 nM	–
Cc1ccc(F)c2[nH]c(CN3CC4CC(C3)N4CC(=O)NC(C)(C)C(F)(F)F)nc12 [Compound 144]	98.286%	–	74.5 nM
CN(CCN1C2CC1CN(Cc1nc3c(Cl)cc(F)cc3[nH]1)C2)C(=O)C1(C)CC1 [Compound 145]	83.5%	–	–
Fc1cc(Cl)c2nc(CN3CC4CC(C3)N4CCOC3CCOCC3)[nH]c2c1 [Compound 146]	41.657%	1280 nM	–
OC(CN1C2CC1CN(Cc1nc3c(Cl)cc(F)cc3[nH]1)C2)C1CCCCC1 (stereo not drawn) [Compound 147]	99.075%	–	–
CC(C)(C)NC(=O)CN1C2COCC1CN(Cc1nc3c(Cl)cc(F)cc3[nH]1)C2 [Compound 148]	11.572%	–	–
CC(C)(NC(=O)CN1CC2CC1CN2Cc1nc2c(Cl)ccc(F)c2[nH]1)C(F)(F)F (stereo not drawn) [Compound 149]	99.801%	407 nM	–
CC1(C)CCC(=O)N1CCN1C2CC1CN(Cc1nc3c(Cl)cc(F)cc3[nH]1)C2 [Compound 150]	66.439%	652 nM	–
OC1(CN2C3CC2CN(Cc2nc4c(Cl)cc(F)cc4[nH]2)C3)CCC(F)(F)CC1 [Compound 151]	95.252%	–	–
Fc1cc(Cl)c2nc(CN3CC4CC(C3)N4CC3(F)CCC(F)(F)CC3)[nH]c2c1 [Compound 152]	70.533%	–	< 78.2 nM
CC(C)(C)NC(=O)CN1CC2COCC(C1)N2Cc1nc2c(Cl)cc(F)cc2[nH]1 [Compound 153]	82.059%	386 nM	–
Fc1ccc(Cl)c2nc(CN3CCN(CC(F)(F)C4CCCCC4)CC3)[nH]c12 [Compound 154]	75.83%	525 nM	–

SMILES	% Inhibition (Single Point Data) [1]	IC50 [2]	IC50
Fc1ccc(Cl)c2nc(CN3CCN(CC4(F)CCC(F)(F)CC4)CC3)[nH]c12 [Compound 155]	80.753%	370 nM	–
OC(CN1CCN(Cc2nc3c(Cl)ccc(F)c3[nH]2)CC1)C1CCCCC1 (stereo not drawn) [Compound 156]	86.133%	–	–
Cc1cccc2[nH]c(CN3CC4CC(C3)N4CCC3CCC(F)(F)CC3)nc12 [Compound 157]	79.835%	297 nM	–
COc1cc(F)cc2[nH]c(CN3CC4CC(C3)N4CCC3CCC(F)(F)CC3)nc12 [Compound 158]	92.557%	148 nM	–
OC1(CN2CCN(Cc3nc4c(Cl)ccc(F)c4[nH]3)CC2)CCC(F)(F)CC1 [Compound 159]	76.669%	250 nM	–
Fc1cc(Cl)c2nc(CN3CCN(CC(F)(F)C4CCCC4)CC3)[nH]c2c1 [Compound 160]	73.495%	652 nM	–
Fc1ccc(Cl)c2nc(CN3CCN(CC(F)C4CCCCC4)CC3)[nH]c12 (stereo not drawn) [Compound 161]	95.402%	< 78.2 nM	–
Fc1cc(Cl)c2nc(CN3CCN(CC(F)(F)C4CCCCC4)CC3)[nH]c2c1 [Compound 162]	73.357%	416 nM	–
Fc1ccc(Cl)c2nc(CN3CCN(CC(F)(F)C4CCCC4)CC3)[nH]c12 [Compound 163]	54.884%	671 nM	–
COc1cc(F)cc2[nH]c(CN3CC4CC(C3)N4CC(=O)NC(C)(C)C)nc12 [Compound 164]	84.695%	–	–
CC(C)(C)NC(=O)CN1C2CC1CN(Cc1nc3c(F)ccc(F)c3[nH]1)C2 [Compound 165]	87.314%	–	–
CC(C)(NC(=O)CN1C2CC1CN(Cc1nc3c(F)ccc(F)c3[nH]1)C2)C(F)(F)F [Compound 166]	87.157%	253 nM	–
Fc1cc(Cl)c2nc(CN3CC4CC(C3)N4CC(F)(F)C3CCCCC3)[nH]c2c1 [Compound 167]	79.996%	381 nM	–
O=S(=O)(CCN1C2CC1CN(Cc1nc3c(Cl)ccc(F)c3[nH]1)C2)c1ccccc1 [Compound 168]	66.949%	711 nM	–
Fc1cc(Cl)c2nc(CN3CC4CC(C3)N4CC(F)C3CCCCC3)[nH]c2c1 (stereo not drawn) [Compound 169]	84.629%	297 nM	–
O=C(CN1CC2CC(C1)N2CC(=O)NC1(C(F)(F)F)CC1)Nc1cc(F)cc(Cl)c1 [Compound 170]	96.908%	–	–
O=C(CN1CC2CC(C1)N2CCS(=O)(=O)c1ccccc1)Nc1cc(F)cc(Cl)c1 [Compound 171]	34.047%	1420 nM	–
CC(C)(CCN1C2CC1CN(Cc1nc3c(Cl)cc(F)cc3[nH]1)C2)C(F)(F)F [Compound 172]	94.964%	–	–
CC(C)(C)NC(=O)CN1C2CC1CN(Cc1nc3c(OC(F)F)ccc(F)c3[nH]1)C2 [Compound 173]	94.854%	–	< 78.2 nM
CC1(NC(=O)CN2C3CC2CN(Cc2nc4c(Cl)ccc(F)c4[nH]2)C3)COC1 [Compound 174]	75.268%	–	–

SMILES	% Inhibition (Single Point Data) [1]	IC50 [2]	IC50
COc1ccc(F)c2[nH]c(CN3CC4CC(C3)N4CC(=O)NC(C)(C)C)nc12 [Compound 175]	89.419%	147 nM	–
Fc1ccc(Cl)c2nc(CN3CC4CC(C3)N4CC(F)(F)C3CCCCC3)[nH]c12 [Compound 176]	83.015%	128 nM	–
Cc1ccc(C#N)c2nc(CN3CC4CC(C3)N4CC(=O)NC(C)(C)C)[nH]c12 [Compound 177]	87.595%	–	–
N#CC1(CN2C3CC2CN(Cc2nc4c(Cl)ccc(F)c4[nH]2)C3)CCCCC1 [Compound 178]	43.012%	1390 nM	–
N#CC1(CN2C3CC2CN(Cc2nc4c(Cl)ccc(F)c4[nH]2)C3)CCC(F)(F)CC1 [Compound 179]	32.612%	1970 nM	–
O=C(CN1C2CC1CN(Cc1nc3c(Cl)ccc(F)c3[nH]1)C2)NC1(C(F)(F)F)COC1 [Compound 180]	82.621%	–	–
CC(C)(NC(=O)CN1C2CC1CN(Cc1nc3c(Cl)ccc(F)c3[nH]1)C2)C(F)(F)F [Compound 181]	102.49%	–	42.3 nM
O=C(CN1C2CC1CN(Cc1nc3c(Cl)cc(F)cc3[nH]1)C2)NC1(C(F)(F)F)COC1 [Compound 182]	92.993%	–	64.8 nM
COc1ccc(F)c2[nH]c(CN3CC4CC(C3)N4CC(=O)NC(C)(C)C(F)(F)F)nc12 [Compound 183]	95.323%	–	87.4 nM
CC(C)(NC(=O)CN1C2CC1CN(Cc1nc3c(OC(F)F)ccc(F)c3[nH]1)C2)C(F)(F)F [Compound 184]	86.326%	200 nM	–
CC(C)(C)NC(=O)CN1C2CCC1CN(Cc1nc3c(Cl)ccc(F)c3[nH]1)C2 [Compound 185, N-tert-butyl-2-[3-[(4-chloro-7-fluoro-1H-benzimidazol-2-yl)methyl]-3,8-diazabicyclo[3.2.1]octan-8-yl]acetamide]	99.412%	–	< 78.2 nM
CC(C)(C)NC(=O)CN1C2CCC1CN(Cc1ncc3ccccc3n1)C2 [Compound 186]	5.7091%	–	–
Cc1ccnc2[nH]c(CN3CC4CCC(C3)N4CC(=O)NC(C)(C)C)nc12 [Compound 187]	46.159%	1000 nM	–
CC(C)(C)NC(=O)CN1C2CCC1CN(Cc1nc3ccccc3[nH]1)C2 [Compound 188]	75.55%	485 nM	–
CC(C)(C)NC(=O)CN1C2CCC1CN(Cc1nc3c(Cl)cccc3[nH]1)C2 [Compound 189]	92.283%	–	< 78.2 nM
Cc1cc(F)cc2[nH]c(CN3CC4CCC(C3)N4CC(=O)NC(C)(C)C)nc12 [Compound 190]	94.944%	210 nM	–
CC(C)(C)NC(=O)CN1C2CCC1CN(Cc1nc3c(Cl)cc(C#N)cc3[nH]1)C2 [Compound 191]	97.531%	–	–
COc1cccc2[nH]c(CN3CC4CCC(C3)N4CC(=O)NC(C)(C)C)nc12 [Compound 192]	76.034%	334 nM	–
CC(C)(C)NC(=O)CN1C2CCC1CN(Cc1nc3cc(F)cc(Cl)c3o1)C2 [Compound 193]	23.525%	2200 nM	–
